Assay results: US6794389B2, “Quinazoline derivatives and drugs” (Nippon Shinyaku Co., Ltd., priority 2000, dated 2004)
pKi: −log10 of the molar value. “And” between values parts separate entries of the source, which are not always exact repeats. Equal entries are not always repeated. Structures can show the parent of a compound that is named as a salt.

Columns and labels:
[1] = biological target: T1, nociceptin receptor (Homo sapiens, UniProt P41146); assay: Nociceptin receptor binding assay ([3H]nociceptin, cell membrane suspension); details: [3H]nociceptin 0.08 nM, 25° C., 60 minutes; Ki calculated from IC50 and Kd; read-out: Affinity for nociceptin receptors Ki
T1 construct: expressed in transfected cells
Description: A cell membrane suspension obtained from a human nociceptin-expressing cell was prepared so that it contained 5 to 10 μg/mL of the membrane protein in a Tris buffer [50 mM Tris-HCl (pH 7.8), 5 mM MgCl2, 1 mM EGTA, 0.1% BSA]. To this, [^3H]nociceptin (diluted at the final concentration of 0.08 nM with the Tris buffer) and a tested substance were added and the mixture was incubated at 25° C. for 60 minutes. Using a cell harvester and a washing solution [50 mM Tris-HCl (pH 7.8), 4° C.], the membrane was recovered onto a GF/B filter which had been pretreated with 0.3% PEI, which was then washed further 4 times. The filter was transferred to a vial, to which a scintillator was added, and the radioactivity was measured using a liquid scintillation counter. Noted that a non-specific binding was regarded as a binding in the presence of 10 μM nociceptin, and a specific binding was obtained by subtracting the non-specific binding from the total binding. From a ratio of binding inhibition in the presence of the tested substance, an IC50 value was obtained, and was then used together with the Kd value for [^3H]nociceptin to calculate the K1 value for the tested substance.

[2] = biological target: T2, μ-receptor (Homo sapiens, UniProt P35372); assay: μ-Receptor binding assay ([3H]diprenorphine, cell membrane preparation); details: [3H]diprenorphine 0.13 nM, 25° C., 90 minutes; Ki calculated from IC50 and Kd; read-out: Affinity for μ-receptor Ki
T2 construct: purchased Receptor Biology
Description: A human μ-receptor-expressing cell membrane preparation (Receptor Biology) was prepared so that it contained 8.5 μg/mL of the membrane protein in a Tris buffer [50 mM Tris-HCl (pH 7.8), 5 MM MgCl2, 1 mM EGTA, 0.1% BSA]. To this, [^3H]diprenorphine (diluted at the final concentration of 0.13 nM with the Tris buffer) and a tested substance were added and the mixture was incubated at 25° C. for 90 minutes. Using a cell harvester and a washing solution [50 mM Tris-HCl (pH 7.8), 4° C.], the membrane was recovered onto a GF/B filter which had been pretreated with 0.3% PEI, which was then washed further 4 times. The filter was transferred to a vial, to which a scintillator was added, and the radioactivity was measured using a liquid scintillation counter. A non-specific binding was regarded as a binding in the presence of 100 μM naloxone, and a specific binding was obtained by subtracting the non-specific binding from the total binding. From a ratio of binding inhibition in the presence of the tested substance, and IC50 value was obtained, and was then used together with the Kd value for [^3H]diprenorphine to calculate the Ki value of the tested substance.

[3] = system: acetic acid-induced writhing reactions in mice; assay: Acetic acid-writhing test in mice; assay type: in vivo, mice (Slc:ddY); details: 10 nmol/animal intrathecal, male mice, counted over 20 minutes after 0.6% acetic acid intraperitoneally; for Number of writhings (individual animal): animal No. 1-10; for Number of writhings (Mean): mean of 10 animals (saline control 17.67)
Description: Ten male mice (Slc:ddY, 4 to 5 weeks old) were assigned to each group. The dorsal skin of each mouse was incised laterally in a length of approximately 3 cm, and after acclimatizing for 30 minutes or longer a 27G needle fitted on the tip of a silicone tube connected to a microsyringe was inserted into a position around L3-L4, through which 5 μL of a drug solution was infused, whereby effecting an administration into a spinal subarachnoid cavity. The tested substance was dissolved in physiological saline, and administered at 10 nmol/animal. In a control group, physiological saline was administered similarly.
A mouse which had been fasting since the day before the experiment was placed in an observation cage (20×20×15 cm), where it was allowed to be acclimatized over a period of 30 minutes or longer, and then received 100 μL per 10 g body weight of a 0.6% acetic acid solution intraperitoneally via a 27G needle. The number of the writhing reactions with stretching the abdomen was counted over 20 minutes after the administration of acetic acid, and the obtained data were represented as means±standard errors. Only the screening data were subjected to the test for a significant difference by a t test between the two groups of the control and a treatment group or by one-way analysis of variance among multiple groups followed by Dunnett's multiple comparison test, and the significant difference was regarded to be present when p<0.05.

T1 sequence (P41146 whole entry): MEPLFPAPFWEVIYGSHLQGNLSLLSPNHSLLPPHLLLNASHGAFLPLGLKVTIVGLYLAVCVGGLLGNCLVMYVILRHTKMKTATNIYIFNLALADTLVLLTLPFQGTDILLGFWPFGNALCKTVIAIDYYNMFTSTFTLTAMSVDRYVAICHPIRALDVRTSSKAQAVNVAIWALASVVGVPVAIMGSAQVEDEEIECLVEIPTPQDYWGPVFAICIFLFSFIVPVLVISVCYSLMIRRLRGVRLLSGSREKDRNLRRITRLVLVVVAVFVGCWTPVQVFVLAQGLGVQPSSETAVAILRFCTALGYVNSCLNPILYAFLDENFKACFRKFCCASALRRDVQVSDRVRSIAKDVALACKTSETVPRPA
T2 sequence (P35372 whole entry): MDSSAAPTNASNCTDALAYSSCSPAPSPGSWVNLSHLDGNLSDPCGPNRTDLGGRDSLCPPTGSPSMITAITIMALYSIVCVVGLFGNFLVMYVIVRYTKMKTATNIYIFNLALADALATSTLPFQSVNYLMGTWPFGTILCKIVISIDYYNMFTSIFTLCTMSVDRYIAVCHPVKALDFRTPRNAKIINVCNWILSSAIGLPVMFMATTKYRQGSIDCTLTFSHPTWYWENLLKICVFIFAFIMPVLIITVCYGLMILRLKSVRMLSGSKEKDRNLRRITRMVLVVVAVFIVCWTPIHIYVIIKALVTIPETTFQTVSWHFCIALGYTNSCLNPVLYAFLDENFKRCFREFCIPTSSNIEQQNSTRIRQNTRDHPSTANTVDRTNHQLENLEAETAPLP

Row | pKi [1] | pKi [2] | Compound | Number of writhings (individual animal) ([3]; listed as Ex. 23, Dihydrochloride) | Number of writhings (Mean) [3] | Number of writhings (individual animal) ([3]; listed as Ex. 46, Trihydrochloride) | Number of writhings (individual animal) ([3]; listed as Ex. 48, Trihydrochloride) | Number of writhings (individual animal) ([3]; listed as Ex. 4, Trihydrochloride)
1 | 8.05 | 7.42 | COc1ccc2nc(C=Cc3ccc(Cl)cc3)nc(NCCCCCCNC(=N)N)c2c1 [Example 16, N-Amidino-N′-[2-(4-chlorostyryl)-6-methoxyquinazolin-4-yl]-1,6-hexanediamine Dihydrochloride] |  |  |  |  | 
2 | 8.22 | 6.71 | COc1ccc2nc(NC(=O)c3ccc(Cl)cc3)nc(N[C@H]3CCCC[C@H]3NC(=N)N)c2c1 (relative stereo) [Example 2, cis-N-Amidino-2-[2-(4-chlorobenzoylamino)-6-methoxyquinazolin-4-yl]aminocyclohexylamine Dihydrochloride] |  |  |  |  | 
3 |  |  | COc1ccc2nc(C=Cc3ccccn3)nc(NC(C)CCCCCNC(=N)N)c2c1.Cl.Cl.Cl (stereo not drawn) [Example 48, N-Amidino-6-{6-methoxy-2-[2-(2-pyridyl)ethenyl]quinazolin-4-yl}aminoheptylamine Trihydrochloride] |  | 5.60 |  | 7 and 0 (4×) and 6 and 16 and 1 and 14 and 12 | 
4 | 8.40 | 7.66 | COc1ccc2nc(C=Cc3ccccn3)nc(NCCN(CCc3ccccc3)C(=N)N)c2c1 [Example 66, N-Amidino-2-{6-methoxy-2-[2-(2-pyridyl)ethenyl]quinazolin-4-yl}aminoethyl-phenylethylamine Trihydrochloride] |  |  |  |  | 
5 | 8.15 | 7.52 | COc1ccc2nc(C=Cc3ccccn3)nc(NC[C@H]3CC[C@@H](CNC(=N)N)CC3)c2c1 [Example 44, cis-N-Amidino-N′-{6-methoxy-2-[2-(2-pyridyl)ethenyl]quinazolin-4-yl}-1,4-bis(aminomethyl)cyclohexane Trihydrochloride] |  |  |  |  | 
6 | 8.52 | 7.49 | COc1ccc2nc(C=Cc3ccccn3)nc(N[C@H]3CC[C@@H](CNC(=N)N)C[C@H]3C)c2c1 (relative stereo) [Example 68, cis-4-Guanidinomethyl-cis-2-methyl-N-{6-methoxy-2-[2-(2-pyridyl)ethenyl]quinazolin-4-yl}cyclohexylamine Trihydrochloride] |  |  |  |  | 

Row | Compound | pKi [1] | pKi [2] | Number of writhings (individual animal) ([3]; listed as Ex. 23, Dihydrochloride) | Number of writhings (Mean) [3] | Number of writhings (individual animal) ([3]; listed as Ex. 46, Trihydrochloride) | Number of writhings (individual animal) ([3]; listed as Ex. 48, Trihydrochloride) | Number of writhings (individual animal) ([3]; listed as Ex. 4, Trihydrochloride)
7 | COc1ccc2nc(C=Cc3ccccn3)nc(NCCCCCCNC(=N)N)c2c1.Cl.Cl [Example 23, N-Amidino-N′-{6-methoxy-2-[2-(2-pyridyl)ethenyl]quinazolin-4-yl}-1,6-hexanediamine Dihydrochloride] | 8.52 | 7.72 | 14 and 0 (5×) and 6 and 18 and 28 and 3 | 6.90 |  |  | 
8 | Cc1ccc2nc(C=Cc3ccccn3)nc(NCCCCCCNC(=N)N)c2c1.Cl.Cl.Cl [Example 46, N-Amidino-N′-{6-methyl-2-[2-(2-pyridyl)ethenyl]quinazolin-4-yl}-1,6-hexanediamine Trihydrochloride] | 8.52 | 7.64 |  | 4.50 | 0 (4×) and 13 and 6 and 3 and 10 and 4 and 9 |  | 
9 | cis-4-Guanidinomethyl-N-{2-[2-(2-pyridyl)ethenyl]-6-methoxyquinazolin-4-yl}cyclohexylamine Trihydrochloride [Example 4] | 8.10 | 7.20 |  | 7.90 |  |  | 18 and 12 (2×) and 10 and 0 (2×) and 2 and 11 and 1 and 13
